# Test system: IFNγ
# Experiment: IFNγ expression by qPCR and ELISA under Th17 inducing conditions
# Format: cell-based, mouse
# Settings: SOCS1-KIR peptide (20 μM)
# Method: FIGS. 5A-5D. […] (FIGS. 5A and 5B) SOCS1^+/+ or SOCS1^+/− CD4^+CD25^− T cells were stimulated with αCD3 antibodies alone or with αCD3+SOCS1-KIR peptide (20 μM) for 72 h. (FIG. 5A) CD25 expressing cells were assessed by flow cytometry. Results are representative of 4 independent experiments. (FIG. 5B) Proliferation was assessed by CFSE labeling and flow cytometry, cell counts, and ^3[H] thymidine incorporation. n=4. (FIGS. 5C and 5D) SOCS1^+/+ or SOCS1^+/− CD4^+CD25^− T cells were placed under Th17 inducing conditions in the absence or presence of SOCS1-KIR peptide (20 μM) (FIG. 5C) IFNγ expression, relative to β-actin., was assessed by qPCR (left) and ELISA (right) (n=4). (FIG. 5D) pSTAT1 and STAT1 protein expressions were assessed by western blotting. Results are representative of 4 independent experiments. Statistical comparisons were performed using Mann-Whitney U test. (*P<0.05). iTh17=Th17 inducing conditions, WT=SOCS1^+/+, and HT=SOCS1^+/−.
# CD4^+CD25^− T lymphocytes (1×10^5/well) were cultured in triplicate at 37° C. (5% CO2) in RPMI 1640 (Cellgro 10-040-CV) containing 10% FBS (INVITROGEN™ GIBCO®) 1% antibiotic/antimycotic (Herndon, Va.), and 50 μM β-ME (MP Biomedicals, Solon, Ohio). […] Cells were incubated for 72 hours and assessed for Treg differentiation by ICS for Foxp3. […] Cells were collected after 5 days and assessed for activation and Th17 differentiation. […]
sequence,measurement,setting,value
DTHFRTFRSHSDYRRI (SOCS1-KIR peptide) [SOCS1 mimetic peptide corresponding to the KIR region of SOCS1],Reduction in IFNγ protein production,ELISA,2 fold
same,Reduction in IFNγ mRNA expression,qPCR relative to β-actin,2 fold

# Source: patent publication US11603387B2, “SOCS mimetics for the treatment of diseases” (UNIVERSITY OF FLORIDA RESEARCH FOUNDATION, INC., priority 2014, dated 2023)
